Key:
NOMO-1 = assay: Antiproliferative activity against human NOMO-1 cells assessed as reduction in cell viability incubated for 48 hrs by MTT assay; format: functional, cell-based; conditions: NOMO-1, 48 h
[1] = molecular target: N6-adenosine-methyltransferase catalytic subunit (Homo sapiens, UniProt Q86U44); assay: Binding affinity to METTL3 (unknown origin) assessed as dissociation constant
Sequence of N6-adenosine-methyltransferase catalytic subunit (Q86U44 whole entry): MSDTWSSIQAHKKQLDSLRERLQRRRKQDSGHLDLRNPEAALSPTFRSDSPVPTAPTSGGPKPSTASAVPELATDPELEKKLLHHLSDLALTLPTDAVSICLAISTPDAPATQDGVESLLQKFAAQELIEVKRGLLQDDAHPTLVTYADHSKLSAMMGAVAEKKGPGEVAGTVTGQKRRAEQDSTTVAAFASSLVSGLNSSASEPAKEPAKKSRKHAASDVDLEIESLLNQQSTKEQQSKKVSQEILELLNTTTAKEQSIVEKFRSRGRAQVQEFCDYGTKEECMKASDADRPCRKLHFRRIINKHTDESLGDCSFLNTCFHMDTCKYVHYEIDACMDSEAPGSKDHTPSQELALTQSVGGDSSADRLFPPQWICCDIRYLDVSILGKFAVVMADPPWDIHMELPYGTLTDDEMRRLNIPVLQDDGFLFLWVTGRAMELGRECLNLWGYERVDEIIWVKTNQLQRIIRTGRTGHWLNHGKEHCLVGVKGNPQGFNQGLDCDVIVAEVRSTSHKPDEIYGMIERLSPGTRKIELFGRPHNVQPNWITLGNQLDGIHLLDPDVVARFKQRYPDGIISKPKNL

| SMILES | IC50 (NOMO-1) [nM] | Kd [1] [nM] |
| --- | --- | --- |
| N#Cc1ccc(Cn2ccc3c4c(N)nc(N)nc4ccc32)cc1 | 20.6 | – |
| C/C(=N\NC(N)=S)c1ccc(F)cc1 | – | 2840 |
| C/C(=N\N=C(/N)S)c1ccccc1 [PHENYL(METHYL)THIOSEMICARBAZONE] | – | 3310 |

From ChEMBL document CHEMBL5584331, “Methyl-Transferase-Like Protein 16 (METTL16): The Intriguing Journey of a Key Epitranscriptomic Player Becoming an Emerging Biological Target” (J Med Chem, 2024)
